Like-named read-outs stand apart in the source and are kept apart here.
Key:
knee joint cavity = assay: Magnetic resonance arthrography after intra-articular injection in rats; assay type: in vivo, Male Sprague-Dawley rats
Protocol: Male Sprague-Dawley rats aged 7 weeks or older were anesthetized using a mixture of oxygen and isoflurane gas. INV-002 synthesized in Example 4-1 was then administered into the knee joint, and T1-weighted MRI images were acquired using a fast spin echo sequence.
For example, the T1 signal intensity of the synovial fluid increased from 4,900 (before injection) to 21,000 (after injection). Subsequently, the contrast-to-noise ratios (CNRs) of various anatomical regions within the joint cavity- including the meniscus, joint capsule, cruciate ligament, bone, and fat - were analyzed (FIG. 22F). The CNR was calculated as the difference in average signal intensity between the synovial fluid and each anatomical structure, divided by the standard deviation of the background signal. After INV-002 injection, the CNRs for the meniscus, capsule, cruciate ligament, bone, and fat regions increased by 10-fold, 8.5-fold, 18-fold, 14-fold, 12-fold, […], respectively, compared to pre-injection levels.
The contrast effect of INV-002 was not only stronger than that of the gadolinium-based contrast agent (e.g., Dotarem) but also lasted longer. For quantitative analysis of contrast enhancement, the signal-to-noise ratio (SNR) was measured at two intra-articular locations (indicated by orange arrows), and the average SNR was plotted over time. […]

[1] = MR relaxivity, phantom at 9.4 T
Protocol: The hydrodynamic size of INV-001 was measured to be 3.6 nm (FIG. 3b). Subsequently, the T1 and T2 relaxation rates (1/T1 and 1/T2) of INV-001 were measured at 9.4 T (FIG. 3c). The longitudinal and transverse relaxivities (r1 and r2) were calculated at various INV-001 concentrations (0.125, 0.25, 0.5, and 1.0 mM). The r1 was determined to be 2.61 mM^-1·s^-1 and the r2 was 4.33 mM^-1·s^-1 (FIGS. 3d and 3e).

[2] = test system: popliteal lymph node and surrounding lymphatic vessels; assay: Magnetic resonance lymphangiography (MRL) in rats, Example 1; assay type: in vivo, male Sprague-Dawley (SD) rats
Protocol: Specifically, all animals used in Example 1 were male Sprague-Dawley (SD) rats weighing 250-300 g. The prepared contrast agent was administered intradermally/subcutaneously into the fourth digits of both hind limbs using a 30-gauge needle. MRL was performed every 16 minutes using a 3D time-of-flight (TOF) sequence with a saturation band on a 9.4-T preclinical MRI scanner.
Gd-DOTA (Gd-DOTA, DOTAREM, Guerbet, Roissy CdG Cedex, France) was used as a Gd-based contrast agent. The Gd-DOTA stock solution, provided at a concentration of 500 mM, was diluted with normal saline before its administration.
The signal-to-noise ratio (SNR) and contrast-to-noise ratio (CNR) of the popliteal lymph node and surrounding lymphatic vessels were analyzed at a dose of 1.125 µmol (75 µL, 15 mM) of INV-001 and Gd-DOTA. Through sequential MRI imaging, dynamic patterns of SNR and CNR and peak time points in the popliteal lymph node and lymphatic vessels were obtained (FIG. 4a). […] In the 1.125 µmol INV-001 group, peak enhancement appeared between 16 and 32 minutes during extended visualization (SNRLN: 23.49 ± 8.64; SNRLV: 16.05 ± 3.52; CNRLN: 15.87 ± 11.05; CNRLV: 12.58 ± 3.37) (FIG. 4b).
Following injection of the contrast agents into the hind limb, magnetic resonance lymphangiography (MRL) was performed using 3D TOF under saturation band conditions to distinguish lymphatic vessels. […] In contrast, in all INV-001 groups, the popliteal lymph node and lymphatic vessels were clearly visualized without venous contamination (FIGs. 5e, 5f, and 5g, yellow arrows). Methylene blue was injected two days after MRL to verify the anatomical structures (FIGs. 5d and 5h).
Qualitative image analyses under various injection conditions were performed using Gd-DOTA and INV-001. In all groups, MRL provided good visualization of the popliteal lymph node and lymphatic vessels (FIG. 6). The qualitative image analysis was conducted according to the criteria shown in Table 1 (Criteria for qualitative score).

[3] = MR relaxivity, phantom at 3 T; conditions: 3 T MRI
Description: The r2/r1 ratio serves as a metric for determining whether the nanoparticles are more appropriate for use as T1 MRI contrast agents or T2 MRI contrast agents.
The hydrodynamic diameter of the synthesized INV-001 was 3.9 nm with a surface charge of -3.3 mV. […] The particle size of this contrast agent exceeds the maximum size (2 nm) permissible for intravasation, thereby preventing its entry into blood vessels. Thus, it is theoretically suitable for use as a lymphatic-specific contrast agent that infiltrates the lymphatic vessels without venous contamination when administered intradermally or subcutaneously.
The measured r1 and r2 relaxivity values of NEMO-103 were 2.0 mM^-1s^-1 and 2.3 mM^-1s^-1, respectively (FIGS. 29d and 29e). The r2/r1 ratio, which is an important parameter for T1 MRI contrast agents, was calculated to be 1.15. […] For comparison, the measured r1 and r2 values of Dotarem® were 4.7 mM^-1s^-1 and 5.2 mM^-1s^-1, respectively, resulting in an r2/r1 ratio of 1.11.
To evaluate the T1 MRI performance of the materials from Example 7-7, both the spin-spin relaxivity coefficient (r2) and spin-lattice relaxivity coefficient (r1) were measured, and the r2/r1 ratio was calculated. The r2/r1 ratio is a critical indicator in determining whether a contrast agent is suitable for T1 or T2 MRI.

lymphatic vessels = assay: MRL after intradermal injection, Example 2; assay type: in vivo, rats; conditions: lower limb, checked with methylene blue
Protocol: INV-001 was administered intradermally into the interdigital space of the lower limb of animals using a 31-gauge syringe. The injection volume was set at 10, 20, 30, 40, 50, or 75 microliters per animal, corresponding to a human equivalent dose of 2, 4, 6, 8, 10, or 15 mL, respectively.
Prior to MRI acquisition, the animals were anesthetized by inhalation of isoflurane delivered in oxygen at a concentration of 0.5-2%. If necessary, local anesthesia with lidocaine was applied to relieve procedural discomfort.
Baseline MRI images were acquired prior to the administration of the contrast agent. Following the injection of INV-001 prepared in Example 2-1, MRI scans were conducted every 16 minutes for a total of 96 minutes. The imaging sequence used was 3D Time-of-Flight Gradient Echo (3D TOF GRE), with images obtained in axial, sagittal, and coronal planes. […]
Maximum intensity projection (MIP) images were generated from the baseline and post-injection MRI data acquired at 16-minute intervals for 96 minutes. […] The overall image quality, including vessel discontinuity, was assessed using a four-point scale (-, +, ++, +++). Additionally, the presence of dermal backflow and lymph node congestion was evaluated. […]
To confirm the clearance of the injected contrast agent, the administration site was evaluated 24 hours after intradermal injection.

[4] = 1.125 µmol (75 µL, 15 mM), at peak enhancement

Q: What does the source list for `CNC[C@H](O)[C@@H](O)[C@H](O)[C@H](O)CO.O=C([O-])CN1CCN(CC(=O)[O-])CCN(CC(=O)O)CCN(CC(=O)[O-])CC1.[Gd+3]` [Gd-DOTA]?
A: time of peak SNR post-injection (knee joint cavity; average of two intra-articular locations): 0.25 h; SNR dropped to baseline within (knee joint cavity; post-injection): ≤ 0.5 h; T1 contrast enhancement in phantom studies [1]: ~3.7 mM⁻¹ s⁻¹; qualitative score [2]: 3.2; venous contamination ([2]; 1.125 µmol (75 µL, 15 mM), hind limb): venous contamination was observed; CNRLN [2, 4]: 21.61 ± 10.04; CNRLV [2, 4]: 7.89 ± 5.15; SNRLV [2, 4]: 11.15 ± 5.83; SNRLN ([2]; 1.125 µmol (75 µL, 15 mM), at peak enhancement (Gd-DOTA 16 min, INV-001 16-32 min)): 26.96 ± 10.78; qualitative score ([2]; 2.25 µmol (75 µL, 30 mM)): 3.8; venous contamination ([2]; 2.25 µmol (75 µL, 30 mM), hind limb): venous contamination was observed; venous contamination ([2]; doses of 0.45 µmol or higher (discussion)): venous contamination in most animals; time of peak enhancement post-injection ([2]; popliteal lymph node and lymphatic vessels, scans every 16 min): 16 min; r1 [3]: 4.7 mM⁻¹ s⁻¹; enhancement of lymphatic vessels versus veins (venous contamination) (lymphatic vessels): preferentially enhanced veins more than lymphatic vessels

From patent publication EP4663207A1, “LYMPHATIC VESSEL CONTRAST AGENT WITHOUT VENOUS CONTAMINATION” (Inventera Inc., priority 2023, dated 2024)
